According to patent US12060349B2, “Glucosylceramide synthase inhibitors” (Genzyme Corporation, priority 2012, dated 2024):
Like-named read-outs stand apart in the source and are kept apart here.

What was measured:
[1] = biological target: T1, glucosylceramide synthase (Homo sapiens, UniProt Q16739); test: microsomal assay measuring conversion of ceramide to glucosylceramide by HPLC (GCS IC50); assay type: biochemical; details: concentration causing 50% inhibition of glucosylceramide synthase activity
T1 construct: Microsomes were isolated from A375 human melanoma cells; endogenous in cells; host or cells: A375 human melanoma cells (microsomal fraction, 100,000 g pellet)
T1 sequence (Q16739 1-394): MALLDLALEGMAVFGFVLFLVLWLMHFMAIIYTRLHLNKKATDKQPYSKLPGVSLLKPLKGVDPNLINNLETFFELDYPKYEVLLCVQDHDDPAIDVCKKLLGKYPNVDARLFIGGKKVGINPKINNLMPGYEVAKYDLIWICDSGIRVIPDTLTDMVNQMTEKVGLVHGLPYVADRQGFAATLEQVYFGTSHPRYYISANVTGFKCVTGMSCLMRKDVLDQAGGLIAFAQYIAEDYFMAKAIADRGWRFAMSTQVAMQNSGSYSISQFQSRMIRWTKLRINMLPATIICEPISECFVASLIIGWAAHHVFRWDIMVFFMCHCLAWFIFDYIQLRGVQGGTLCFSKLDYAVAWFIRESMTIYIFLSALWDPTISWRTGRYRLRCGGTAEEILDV
In short: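 Microsomal preparation assayed for glucosylceramide synthase by direct HPLC measurement of ceramide conversion to glucosylceramide. GCS IC50 is the compound concentration giving 50% inhibition of enzyme activity.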

[2] = test system: GM3 expression on the cell surface, B16 mouse melanoma cells; test: cell based phenotypic assay, cell surface GM3 by antibody mediated immunofluorescence, B16 (GM3 B16 IC50); details: Mus musculus, 50% inhibition of GM3 expression on the cell surface
In short: (§1)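 Both lines undergo the phenotypic GM3 assay, and viability is recorded from that same cell-based run.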

B16 mouse melanoma cells = test: cell viability in the B16 cell-based assay (Viability, B16 IC50); details: Mus musculus
In short: (§2)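 Two melanoma lines, mouse B16 and human C32, were treated and surface GM3 quantified by antibody immunofluorescence for IC50. A parallel viability readout gives the concentration killing 50% of cells, with values over 10 indicating no cell death.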

C32 human melanoma cells = test: cell viability in the C32 cell-based assay (Viability, C32 IC50); details: Homo sapiens, concentration causing 50% cell death, values greater than 10 represent a lack of cell death
In short: as §2

[3] = test system: GM3 expression on the cell surface, C32 human melanoma cells; test: cell based phenotypic assay, cell surface GM3 by antibody mediated immunofluorescence, C32 (GM3 C32 IC50); details: Homo sapiens, 50% inhibition of GM3 expression on the cell surface
In short: as §1

[4] = read-out: GM3 B16 IC50, B16 mouse melanoma cells
[5] = B16, read-out: Viability, B16 IC50
[6] = C32, read-out: Viability, C32 IC50, C32 cells
[7] = read-out: GM3 C32 IC50, C32 human melanoma cells
[8] = B16 mouse melanoma cells, read-out: GM3 B16 IC50
[9] = B16, B16 cells, concentration causing 50% cell death, values greater than 10 represent a lack of cell death, read-out: Viability, B16 IC50
[10] = C32, C32 cells, read-out: Viability, C32 IC50
[11] = C32 human melanoma cells, read-out: GM3 C32 IC50

Row | Compound | IC50 [1] | IC50 [2, 4] | IC50 (B16 mouse melanoma cells; [5]) | IC50 (C32 human melanoma cells; [6]) | IC50 [3, 7] | IC50 [2, 8] | IC50 (B16 mouse melanoma cells; [9]) | IC50 (C32 human melanoma cells; [10]) | IC50 [3, 11]
1 | CC(C)(NC(=O)OC1CN2CCC1CC2)c1ccc(-c2ccc(CN3CCOCC3)cc2)cc1 (stereo not drawn) [Example 229, Quinuclidin-3-yl (2-(4′-(morpholinomethyl)-[1,1′-biphenyl]-4-yl)propan-2-yl)carbamate] | 158 nM | 524 nM | ≥ 10000 nM | ≥ 10000 nM | 53.2 nM |  |  |  | 
2 | CC(C)(NC(=O)N1CCN2CCC1CC2)c1ccc(-c2ccc(CN3CCOCC3)cc2)cc1 [Example 230, N-(2-(4′-(Morpholinomethyl)-[1,1′-biphenyl]-4-yl)propan-2-yl)-1,4-diazabicyclo[3.2.2]nonane-4-carboxamide] | 2280 nM |  |  |  |  | 1790 nM | ≥ 10000 nM | ≥ 10000 nM | 417 nM
3 | CC(C)(NC(=O)OC1CN2CCC1CC2)c1ccc(-c2ccc(N3CCOCC3)cc2)cc1 (stereo not drawn) [Example 231, Quinuclidin-3-yl (2-(4′-morpholino-[1,1′-biphenyl]-4-yl)propan-2-yl)carbamate] | 71 nM | 230 nM | 2000 nM | 2000 nM | 15 nM |  |  |  | 
4 | CC(C)(NC(=O)NC1(C)CN2CCC1CC2)c1ccc(-c2ccc(N3CCOCC3)cc2)cc1 (stereo not drawn) [Example 232, 1-(3-Methylquinuclidin-3-yl)-3-(2-(4′-morpholino-[1,1′-biphenyl]-4-yl)propan-2-yl)urea] | 30.9 nM |  |  |  |  | 64.2 nM | 1000 nM | 1000 nM | 7.17 nM
5 | CC(C)(NC(=O)NC1(C)CCN2CCC1CC2)c1ccc(-c2ccc(N3CCOCC3)cc2)cc1 (stereo not drawn) [Example 233, 1-(4-Methyl-1-azabicyclo[3.2.2]nonan-4-yl)-3-(2-(4′-morpholino-[1,1′-biphenyl]-4-yl)propan-2-yl)urea] | 5.68 nM |  |  |  |  | 5.51 nM | 1000 nM | 1000 nM | 0.726 nM
6 | CCC1(NC(=O)NC(C)(C)c2ccc(-c3ccc(N4CCOCC4)cc3)cc2)CN2CCC1CC2 (stereo not drawn) [Example 234, 1-(3-Ethylquinuclidin-3-yl)-3-(2-(4′-morpholino-[1,1′-biphenyl]-4-yl)propan-2-yl)urea] | 14.6 nM |  |  |  |  | 32.6 nM | 1000 nM | 1000 nM | 1.81 nM
7 | CC(C)(NC(=O)OC1CN2CCC1CC2)c1ccc(-c2ccc(S(C)(=O)=O)cc2)cc1 (stereo not drawn) [Example 235, Quinuclidin-3-yl (2-(4′-(methylsulfonyl)-[1,1′-biphenyl]-4-yl)propan-2-yl)carbamate] | 111 nM | 118 nM | ≥ 10000 nM | ≥ 10000 nM | 19.9 nM |  |  |  | 
8 | CCC1(NC(=O)NC(C)(C)c2ccc(-c3ccc(S(C)(=O)=O)cc3)cc2)CN2CCC1CC2 (stereo not drawn) [Example 236, 1-(3-Ethylquinuclidin-3-yl)-3-(2-(4′-(methylsulfonyl)-[1,1′-biphenyl]-4-yl)propan-2-yl)urea] | 53.8 nM |  |  |  |  | 74.4 nM | ≥ 10000 nM | ≥ 10000 nM | 9.46 nM
9 | CCCC1(NC(=O)NC(C)(C)c2ccc(-c3ccc(S(C)(=O)=O)cc3)cc2)CN2CCC1CC2 (stereo not drawn) [Example 237, 1-(2-(4′-(Methylsulfonyl)-[1,1′-biphenyl]-4-yl)propan-2-yl)-3-(3-propylquinuclidin-3-yl)urea] | 35.4 nM |  |  |  |  | 32.9 nM | ≥ 10000 nM | ≥ 10000 nM | 6.71 nM
10 | CC(C)(NC(=O)OC1CN2CCC1CC2)c1ccc(-c2ccc(S(=O)(=O)CC3CC3)cc2)cc1 (stereo not drawn) [Example 238, Quinuclidin-3-yl (2-(4′-((cyclopropylmethyl)sulfonyl)-[1,1′-biphenyl]-4-yl)propan-2-yl)carbamate] | 15.4 nM | 50.1 nM | ≥ 10000 nM | 1000 nM | 4.45 nM |  |  |  | 
11 | CCC1(NC(=O)NC(C)(C)c2ccc(-c3ccc(S(=O)(=O)CC4CC4)cc3)cc2)CN2CCC1CC2 (stereo not drawn) [Example 239, 1-(2-(4′-((Cyclopropylmethyl)sulfonyl)-[1,1′-biphenyl]-4-yl)propan-2-yl)-3-(3-ethylquinuclidin-3-yl)urea] | 9.87 nM |  |  |  |  | 28.5 nM | ≥ 10000 nM | 1000 nM | 3.21 nM
12 | CC(C)(NC(=O)NC1(C)CN2CCC1CC2)c1ccc(-c2ccc(S(=O)(=O)CC3CC3)cc2)cc1 (stereo not drawn) [Example 240, 1-(2-(4′-((Cyclopropylmethyl)sulfonyl)-[1,1′-biphenyl]-4-yl)propan-2-yl)-3-(3-methylquinuclidin-3-yl)urea] | 13.3 nM |  |  |  |  | 86.5 nM | ≥ 10000 nM | 1000 nM | 5.97 nM
13 | CC(C)(NC(=O)OC1CCN2CCC1CC2)c1ccc(-c2ccc(S(=O)(=O)CC3CC3)cc2)cc1 (stereo not drawn) [Example 241, 1-Azabicyclo[3.2.2]nonan-4-yl (2-(4′-((cyclopropylmethyl)sulfonyl)-[1,1′-biphenyl]-4-yl)propan-2-yl)carbamate] | 4.23 nM |  |  |  |  | 12.2 nM | ≥ 10000 nM | 3160 nM | 1.44 nM
14 | COCCCS(=O)(=O)c1ccc(-c2ccc(C(C)(C)NC(=O)OC3CN4CCC3CC4)cc2)cc1 (stereo not drawn) [Example 242, Quinuclidin-3-yl (2-(4′-((3-methoxypropyl)sulfonyl)-[1,1′-biphenyl]-4-yl)propan-2-yl)carbamate] | 32.5 nM | 82.5 nM | ≥ 10000 nM | 3160 nM | 10.2 nM |  |  |  | 
15 | CCC1(NC(=O)NC(C)(C)c2ccc(-c3ccc(S(=O)(=O)CCCOC)cc3)cc2)CN2CCC1CC2 (stereo not drawn) [Example 243, 1-(3-Ethylquinuclidin-3-yl)-3-(2-(4′-((3-methoxypropyl)sulfonyl)-[1,1′-biphenyl]-4-yl)propan-2-yl)urea] | 32.8 nM |  |  |  |  | 57.3 nM | ≥ 10000 nM | 3160 nM | 7.49 nM
16 | CCCC1(NC(=O)NC(C)(C)c2ccc(-c3ccc(S(=O)(=O)CCCOC)cc3)cc2)CN2CCC1CC2 (stereo not drawn) [Example 244, 1-(2-(4′-((3-Methoxypropyl)sulfonyl)-[1,1′-biphenyl]-4-yl)propan-2-yl)-3-(3-propylquinuclidin-3-yl)urea] | 37.1 nM |  |  |  |  | 34.1 nM | ≥ 10000 nM | 3160 nM | 6.99 nM
17 | CC(C)(C)CCS(=O)(=O)c1ccc(-c2ccc(C(C)(C)NC(=O)OC3CN4CCC3CC4)cc2)cc1 (stereo not drawn) [Example 245, Quinuclidin-3-yl (2-(4′-((3,3-dimethylbutyl)sulfonyl)-[1,1′-biphenyl]-4-yl)propan-2-yl)carbamate] | 1.85 nM | 66.3 nM | 6740 nM | 316 nM | 0.716 nM |  |  |  | 
18 | CC(C)(C)CCS(=O)(=O)c1ccc(-c2ccc(C(C)(C)NC(=O)NC3(C)CN4CCC3CC4)cc2)cc1 (stereo not drawn) [Example 246, 1-(2-(4′-((3,3-Dimethylbutyl)sulfonyl)-[1,1′-biphenyl]-4-yl)propan-2-yl)-3-(3-methylquinuclidin-3-yl)urea] | 1.7 nM |  |  |  |  | 11.4 nM | ≥ 10000 nM | 1000 nM | 0.624 nM
19 | CCC1(NC(=O)NC(C)(C)c2ccc(-c3ccc(S(=O)(=O)CCC(C)(C)C)cc3)cc2)CN2CCC1CC2 (stereo not drawn) [Example 247, 1-(2-(4′-((3,3-Dimethylbutyl)sulfonyl)-[1,1′-biphenyl]-4-yl)propan-2-yl)-3-(3-ethylquinuclidin-3-yl)urea] | 1.66 nM |  |  |  |  | 4.28 nM | 6640 nM | 1000 nM | 0.396 nM
20 | CC(C)(C)CCS(=O)(=O)c1ccc(-c2ccc(C(C)(C)NC(=O)NC3(C)CCN4CCC3CC4)cc2)cc1 (stereo not drawn) [Example 248, 1-(2-(4′-((3,3-Dimethylbutyl)sulfonyl)-[1,1′-biphenyl]-4-yl)propan-2-yl)-3-(4-methyl-1-azabicyclo[3.2.2]nonan-4-yl)urea] | 0.804 nM |  |  |  |  | 6.84 nM | 7730 nM | 1000 nM | 0.315 nM
21 | COCC1(CS(=O)(=O)c2ccc(-c3ccc(C(C)(C)NC(=O)OC4CN5CCC4CC5)cc3)cc2)CC1 (stereo not drawn) [Example 249, Quinuclidin-3-yl (2-(4′-(((1-(methoxymethyl)cyclopropyl)methyl)sulfonyl)-[1,1′-biphenyl]-4-yl)propan-2-yl)carbamate] | 53.5 nM | 247 nM | ≥ 10000 nM | 2150 nM | 5.82 nM |  |  |  | 
